Experimental data as given in US4076659A, “L-Val^10 -somatostatin and intermediates thereto” (Eli Lilly and Company, priority 1976, dated 1978).
Bridge positions count the residues as written; N and C are the ends. Peptide text beside a SMILES is read from it.

Test system: release of growth hormone
Test: Inhibition of growth hormone release in sodium pentobarbitol-stimulated rats (modified Brazeau method)
Type: in vivo, mature male Spraque-Dawley rats
Settings: subcutaneously, sodium pentobarbitol-stimulated GH secretion, vs saline control group
Protocol: The product from Example 4 was tested for its activity in inhibiting the release of growth hormone. The procedure which was employed is carried out using mature male Spraque-Dawley rats (Laboratory Supply Company, Indianapolis, Indiana). The test is a modification of the method of P. Brazeau, W. Vale, and R. Guilleman, Endocrinology, 94 184 (1974). In this assay, five groups of eight rats each were employed. First, sodium pentobarbitol was administered to all 40 rats to stimulate growth hormone secretion. One of the groups of eight rats is the control group and received only saline. Two of the groups received somatostatin, one at 2 μg./rat, subcutaneously, and the other at 50 μg./rat, subcutaneously. The other two groups received L-Val^10 -somatostatin, one at 2 μg./rat, subcutaneously and the other at 50 μg./rat, subcutaneously. The degree of inhibition of serum growth hormone concentration then was determined with respect to the control group, and the relative activities of L-Val^10 -somatostatin and somatostatin itself were compared.

CC(C)[C@@H]1NC(=O)[C@H](CCCCN)NC(=O)[C@H](Cc2c[nH]c3ccccc23)NC(=O)[C@H](Cc2ccccc2)NC(=O)[C@H](Cc2ccccc2)NC(=O)[C@H](CC(N)=O)NC(=O)[C@H](CCCCN)NC(=O)[C@@H](NC(=O)CNC(=O)[C@H](C)N)CSSC[C@@H](C(=O)O)NC(=O)[C@H](CO)NC(=O)[C@H]([C@@H](C)O)NC(=O)[C@H](Cc2ccccc2)NC1=O [L-Val^10 -somatostatin] (H-AGCKNFFWKVFTSC-OH; disulfide 3-14)
diminished serum growth hormone concentration over control (2 μg./rat): 49%
diminished serum growth hormone concentration over control (inhibition) (50 μg./rat): 72%
